Source: patent EP0437382A1, “Thimidin derivatives, their preparation and compositions containing them” (RHONE-POULENC SANTE, priority 1990, dated 1991)
In brackets after ≈: the same amount, converted by molar mass.

Legend:
[1] = Cytotoxicity on non-infected CEM cells (MTT viability); format: cell-based, humaines; conditions: human; non-infected CEM cells, 7 days; read-out: CC50 (concentration qui inhibe de 50 % la croissance des cellules non infectées)
Procedure: (§1) Dans ce qui suit on décrit les résultats sur l'effet cytopathogène et la multiplication du virus HIV dans une lignée cellulaire permissive (cellules lymphoblastoïdes humaines CEM).
(§2) Le test est réalisé sur la lignée lymphoblastoïde CEM clone 13. Dans une microplaque de 96 puits on dépose 25 µl/puit d'une solution de produit à tester ou de tampon phosphate isotonique (TPI) dans le cas des contrôles. Les produits sont étudiés à différentes concentrations (souvent 8), à raison de 4 puits par concentration. On ajoute alors 125 µl d'une suspension de cellules CEM dans le milieu RPMI contenant 10 % de sérum de veau foetal, 40 U/ml de pénicilline, 40 µg/ml de streptomycine et 5 µg/ml de polybrène (3500 cellules par puit) et les microplaques sont incubées une heure à 37°C, sous une atmosphère contenant 5 % de gaz carbonique. L'essai est fait en double: une partie sur cellules infectées, pour la détermination de l'activité antivirale et l'autre partie sur cellules non infectées, pour déterminer la cytotoxité des produits. On infecte la première série avec HIV (100 µl par puit d'une suspension de virus LAV-1-BRU contenant 200-300 TCID50) tandis que l'autre série reçoit 100 µl de milieu RPMI tel que défini précédemment. Après 7 jours d'incubation, 175 µl de surnageant sont prélevés et seront utilisés par la suite pour le dosage de la reverse transcriptase. La viabilité cellulaire est déterminée selon une modification de la technique décrite par R. PAUWELS et coll., J. Virol. Meth., 20, 309-321 (1988).
(§3) Les puits, contenant encore les cellules (infectées ou non infectées), reçoivent 10 µl d'une solution de MTT (méthylthiazoletétrazolium) à 5 mg/ml dans du tampon phosphate isotonique. Pendant une période d'incubation de 4 heures, le MTT est converti en un sel de formazan (bleu) à l'intérieur des cellules vivantes et proportionnellement à leur nombre, alors que rien n'apparaît dans les puits ne contenant plus que des cellules mortes. On ajoute alors 120 µl d'isopropanol (contenant 0,04 mole/l d'acide chlorhydrique) et les microplaques sont agitées jusqu'à la solubilisation du bleu de formazan. […]
(§4) Dans ces conditions les cellules infectées sont lysées à environ 60-70 % par rapport aux cellules non infectées. On établit la concentration du produit qui inhibe l'effet cytopathogène du virus de 50 % (CE50). On détermine également celle qui inhibe de 50 % la croissance des cellules non infectées (CC50). Le rapport entre CC50 et CE50 est défini comme l'indice de sélectivité antivirale i.

[2] = system: lignée lymphoblastoïde CEM clone 13, cellules non infectées; experiment: as above; format: cell-based, humaines; conditions: 7 days, control (0 µg/ml) 0.954
Procedure: as §1, §2, §3, §4

[3] = system: précurseurs granulocytaires/macrophagiques de la moelle osseuse; experiment: CFU-G/M test (bone marrow granulocyte/macrophage precursors, clone formation); format: cell-based, humaine; conditions: CFU-GM, human bone marrow, read-out: concentration inhibitrice de 50% de la formation des clones
Excerpt: (§5) Enfin, les produits selon l'invention manifestent un intérêt considérable du fait de leur absence de toxicité à des concentrations élevées à l'égard des précurseurs hématopoietiques de la moelle humaine.
(§6) Il est en effet connu que l'un des problèmes majeurs associés au traitement par certains produits de cette classe, est la toxicité sur les précurseurs erythrocytaires et granulocytaires/macrophagiques de la moelle osseuse, qui se traduit du point de vue clinique dans des sévères anémies et leucopénies [D.D. RICHMAN et al., N. Engl. J. Med., 317, 192-197, (1987). R. YARCHOAN et al., Lancet i, 575-580, (1986)]. Cette toxicité peut être mise en évidence au niveau du laboratoire par des tests in vitro, sur des précurseurs erythrocytaires et granulocytaires/macrophagiques de la moelle osseuse (J.P. SOMMADOSSI et R. CARLISLE, Antimicro. Ag. Chemother., 31, 452-454, (1987). L'étude est mise en oeuvre dans les techniques de D. THIERRY et al., Acta Radiol., 24, 521-526, (1985) et D. METCALF, Hematopoietic Colony Stimulating factors, p 88-89, Elsevier (1984).
(§7) Dans le test CFU-G/M, la concentration inhibitrice de 50% de la formation des clones est de 30 µg/ml.

[4] = system: précurseurs erythrocytaires de la moelle osseuse; experiment: BFU-E test (bone marrow erythrocyte precursors); format: cell-based, humaine; conditions: 108 µg/ml, human bone marrow
Excerpt: as §5, §6, §7

[5] = system: transcriptase inverse du virus HIV; experiment: Viral multiplication by reverse transcriptase assay on culture supernatant; format: cell-based; conditions: 0,1 µg/cm³
Procedure: as §2, with “(1988). […]” for “(1988).”

virus HIV (LAV-1-BRU) = experiment: microbe, parasite or virus in culture; format: cell-based; conditions: for Cellules infectées densité optique DO 600: control (0 µg/ml) 0.293
Procedure: as §1, §2, §3, §4

## Cc1cn([C@H]2C[C@H](N=[N+]=[N-])[C@@H](CO)O2)c(=O)n(N)c1=O [Exemple 1, azido-3′ amino-3 désoxy-3′ thymidine]
[1]
  CC50 at 168 h: 10 µg/mL (≈ 35.4 µM)
[2]; 0.0003 µg/ml
  cellules non infectées densité optique DO 600: 0.935
[2]; 0.001 µg/ml
  cellules non infectées densité optique DO 600: 0.888
[2]; 0.003 µg/ml
  cellules non infectées densité optique DO 600: 0.882
[2]; 0.01 µg/ml
  cellules non infectées densité optique DO 600: 0.884
[2]; 0.03 µg/ml
  cellules non infectées densité optique DO 600: 0.901
[2]; 0.1 µg/ml
  cellules non infectées densité optique DO 600: 0.928
[2]; 0.3 µg/ml
  cellules non infectées densité optique DO 600: 0.931
[2]; 1 µg/ml
  cellules non infectées densité optique DO 600: 0.909
[2]; 3 µg/ml
  cellules non infectées densité optique DO 600: 0.892
[2]; 10 µg/ml
  cellules non infectées densité optique DO 600: 0.368
[2]; 30 µg/ml
  cellules non infectées densité optique DO 600: 0.004
[3]
  IC50: 30 µg/mL (≈ 106 µM)
[4]
  toxicité dans le test BFU-E: dépourvu de toxicité
[5]; untreated infected cultures 204363 cpm
  activité de la transcriptase inverse, coups par minute (cpm): 44558 cpm
[5]; Human immunodeficiency virus 1, CCRF-CEM, 168 h, culture supernatant after 7 days, read-out: % d'inhibition (reverse transcriptase du virus HIV)
  inhibition at 0.1 µg/mL: 80%
Virus HIV (LAV-1-BRU); 0.0003 µg/ml, 7 days
  Cellules infectées densité optique DO 600: 0.311
Virus HIV (LAV-1-BRU); 0.001 µg/ml, 7 days
  Cellules infectées densité optique DO 600: 0.359
Virus HIV (LAV-1-BRU); 0.003 µg/ml, 7 days
  Cellules infectées densité optique DO 600: 0.456
Virus HIV (LAV-1-BRU); 0.01 µg/ml, 7 days
  Cellules infectées densité optique DO 600: 0.565
Virus HIV (LAV-1-BRU); 0.03 µg/ml, 7 days
  Cellules infectées densité optique DO 600: 0.577
Virus HIV (LAV-1-BRU); 0.1 µg/ml, 7 days
  Cellules infectées densité optique DO 600: 0.596
Virus HIV (LAV-1-BRU); 0.3 µg/ml, 7 days
  Cellules infectées densité optique DO 600: 0.838
Virus HIV (LAV-1-BRU); 1 µg/ml, 7 days
  Cellules infectées densité optique DO 600: 0.926
Virus HIV (LAV-1-BRU); 3 µg/ml, 7 days
  Cellules infectées densité optique DO 600: 0.865
Virus HIV (LAV-1-BRU); 10 µg/ml, 7 days
  Cellules infectées densité optique DO 600: 0.441
Virus HIV (LAV-1-BRU); 30 µg/ml, 7 days
  Cellules infectées densité optique DO 600: 0.007
Virus HIV (LAV-1-BRU); Human immunodeficiency virus 1, CCRF-CEM, 168 h, infected CEM cells, 7 days, read-out: CE50 (concentration qui inhibe l'effet cytopathogène du virus de 50 %)
  EC50: 0.01 µg/mL (≈ 0.0354 µM)
Virus HIV (LAV-1-BRU); human, cem cells, 168 h
  indice de sélectivité i = CC50/CE50: 1000
